Patent US10219516B2, “Molecules having pesticidal utility, and intermediates, compositions, and processes, related thereto” (priority 2015, dated 2019)
Like-named read-outs stand apart in the source and are kept apart here.

Columns and labels:
Type in all cases: in vivo
[1] = test system: Green Peach Aphid (Myzus persicae, MYZUPE); experiment: Bioassay on Green Peach Aphid (GPA), foliar spray on infested cabbage seedlings; conditions: 72 h
Procedure, shortened: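 Cabbage seedlings (2-3 true leaves) infested with 20-50 wingless adult and nymph aphids one day before treatment; sprayed to runoff at 200 ppm in 0.025% Tween 20 water with 20% acetone/methanol, four pots per treatment. Held three days at about 25° C; live aphids counted, % control by Abbott's correction versus solvent check.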

[2] = test system: Cabbage Looper (Trichoplusia ni, TRIPNI); experiment: Bioassay on Cabbage Looper (CL), 128-well diet tray assay; conditions: Trichoplusia ni
Procedure, shortened: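 Second-instar larvae, one to five per well, placed on artificial diet treated with 50 μg/cm^2 test molecule in 90:10 acetone-water, dried before infestation. Held 5–7 days at 25° C, 14:10 light-dark; percent mortality averaged over eight wells.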

[3] = test system: Beet Armyworm (Spodoptera exigua, LAPHEG); experiment: Bioassay on Beet Armyworm (BAW), 128-well diet tray assay
Procedure, shortened: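 Test molecule dissolved in acetone-water 90:10 is applied at 50 μg/cm^2 onto artificial diet and allowed to dry. Second instar larvae, one to five per well, are then added, and trays are vented and kept at 25° C. for five to seven days before mortality is scored.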

[4] = test system: Yellow Fever Mosquito (Aedes aegypti, AEDSAE); experiment: Bioassay on Yellow Fever Mosquito (YFM), 96-well plate larval assay; conditions: for YFM (Biological Results, rating): Species YFM (Yellow Fever Mosquito); for YFM rating: Yellow Fever Mosquito, 96-well plate larval assay
Procedure, shortened: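 Each well was scored for mortality after 3 days at room temperature under a non-evaporative lid. Test molecules came from DMSO masters (4000 ppm stock) diluted with water/acetone 90:10 and dispensed into six replicate plates, which were then infested with roughly 1-day-old larvae in liver-powder water.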

[5] = foliar, Species GPA (Green Peach Aphid), read-out: GPA (Biological Results, rating)
[6] = Species CL (Cabbage Looper), read-out: CL (Biological Results, rating)
[7] = Species BAW (Beet Armyworm), read-out: BAW (Biological Results, rating)
[8] = Green Peach Aphid, foliar spray on cabbage seedlings, read-out: GPA rating
[9] = Cabbage Looper, 128-well diet tray assay, read-out: CL rating
[10] = Beet Armyworm, 128-well diet tray assay, read-out: BAW rating

| SMILES | pest or weed control at 200 µg/mL [1, 5] [%] | pest or weed control at 50 µg/cm2 [2, 6] [%] | pest or weed control at 50 µg/cm2 [3, 7] [%] | YFM (Biological Results, rating) [4] | pest or weed control at 200 µg/mL [1, 8] [%] | pest or weed control at 50 µg/cm2 [2, 9] [%] | pest or weed control at 50 µg/cm2 [3, 10] [%] | YFM rating [4] |
| --- | --- | --- | --- | --- | --- | --- | --- | --- |
| O=C(Nc1ccc(F)cc1)c1cc(NC(=O)[C@H]2[C@H](c3cc(Cl)cc(Cl)c3)C2(Cl)Cl)ccc1Cl (relative stereo) [F1, trans-2-chloro-5-(2,2-dichloro-3-(3,5-dichlorophenyl)cyclopropane-1-carboxamido)-N-(4-fluorophenyl)benzamide] | 0 to 80 | 50 to 100 | 50 to 100 | A (80-100) |  |  |  |  |
| O=C(Nc1ccc(F)cc1)c1cc(NC(=O)[C@H]2[C@H](c3cc(Cl)c(Cl)c(Cl)c3)C2(Cl)Cl)ccc1Cl [F279, 2-Chloro-5-((1R,3R)-2,2-dichloro-3-(3,4,5-trichlorophenyl)cyclopropane-1-carboxamido)-N-(4-fluorophenyl)benzamide] | 80 to 100 | 50 to 100 | 50 to 100 | A (80-100) |  |  |  |  |
| O=C(Nc1ccc(F)cc1)c1cc(NC(=O)[C@H]2[C@H](c3cc(Cl)c(Cl)c(Cl)c3)C2(Cl)Cl)ccc1F (relative stereo) [F29, trans-5-(2,2-Dichloro-3-(3,4,5-trichlorophenyl)cyclopropane-1-carboxamido)-2-fluoro-N-(4-fluorophenyl)benzamide] | 0 to 80 | 50 to 100 | 50 to 100 | A (80-100) |  |  |  |  |
| O=C(Nc1ccncc1)c1cc(NC(=O)[C@H]2[C@H](c3cc(Cl)cc(Cl)c3)C2(Cl)Cl)ccc1Cl (relative stereo) [F26, trans-2-Chloro-5-(2,2-dichloro-3-(3,5-dichlorophenyl)cyclopropane-1-carboxamido)-N-(pyridin-4-yl)benzamide] | 0 to 80 | 50 to 100 | 50 to 100 | A (80-100) |  |  |  |  |
| CN(C(=O)c1cc(NC(=O)[C@H]2[C@H](c3ccc(Cl)c(Cl)c3)C2(Cl)Cl)ccc1F)c1ccc(F)cc1F (relative stereo) [F64, trans-5-(2,2-Dichloro-3-(3,4-dichlorophenyl)cyclopropane-1-carboxamido)-N-(2,4-difluorophenyl)-2-fluoro-N-methylbenzamide] | 80 to 100 | 50 to 100 | 50 to 100 | B (More than 0-Less than 80) |  |  |  |  |
| O=C(Nc1ccsc1)c1cc(NC(=O)[C@H]2[C@H](c3cc(Cl)cc(Cl)c3)C2(Cl)Cl)ccc1Cl (relative stereo) [PF152, trans-2-Chloro-5-(2,2-dichloro-3-(3,5-dichlorophenyl)cyclopropane-1-carboxamido)-N-(thiophen-3-yl)benzamide] |  |  |  |  | 0 to 80 | 50 to 100 | 50 to 100 | B (More than 0-Less than 80) |
| O=C(Nc1ccc(F)cc1)c1cccc(NC(=O)[C@H]2[C@H](c3cc(Cl)cc(Cl)c3)C2(Cl)Cl)c1F (relative stereo) [F15, trans-3-(2,2-Dichloro-3-(3,5-dichlorophenyl)cyclopropane-1-carboxamido)-2-fluoro-N-(4-fluorophenyl)benzamide] | 0 to 80 | 50 to 100 | 50 to 100 | A (80-100) |  |  |  |  |
| CNC(=O)c1ccc(NC(=O)c2cc(NC(=O)[C@H]3[C@H](c4cc(Cl)cc(Cl)c4)C3(Cl)Cl)ccc2Cl)cn1 (relative stereo) [F77, trans-5-(2-Chloro-5-(2,2-dichloro-3-(3,5-dichlorophenyl)cyclopropane-1-carboxamido)benzamido)-N-methylpicolinamide] | 80 to 100 | 50 to 100 | 50 to 100 | A (80-100) |  |  |  |  |
| COc1c(NC(=O)[C@H]2[C@H](c3cc(Cl)cc(Cl)c3)C2(Cl)Cl)cccc1C(=O)Nc1ccc(F)cc1 (relative stereo) [F30, trans-3-(2,2-Dichloro-3-(3,5-dichlorophenyl)cyclopropane-1-carboxamido)-N-(4-fluorophenyl)-2-methoxybenzamide] | 0 to 80 | 50 to 100 | 50 to 100 | A (80-100) |  |  |  |  |
| O=C(Nc1ccc(F)cc1)c1cc(NC(=O)[C@H]2[C@H](c3cc(Cl)cc(Cl)c3)C2(Cl)Cl)ccc1F (relative stereo) [F129, trans-5-(2,2-Dichloro-3-(3,5-dichlorophenyl)cyclopropane-1-carboxamido)-2-fluoro-N-(4-fluorophenyl)benzamide] | 80 to 100 | 50 to 100 | 50 to 100 | A (80-100) |  |  |  |  |
| O=C(Nc1ccc2ncsc2c1)c1cc(NC(=O)C2C(c3cc(Cl)cc(Cl)c3)C2(Cl)Cl)ccc1Cl (stereo not drawn) [F434, N-(Benzo[d]thiazol-6-yl)-2-chloro-5-(trans)-2,2-dichloro-3-(3,5-dichlorophenyl)cyclopropane-1-carboxamido)benzamide] |  |  |  |  | 0 to 80 | 50 to 100 | 50 to 100 | A (80-100) |
| CC(C)c1ccccc1NC(=O)c1cc(NC(=O)[C@H]2[C@H](c3cc(Cl)cc(Cl)c3)C2(Cl)Cl)ccc1Cl (relative stereo) [F41, trans-2-Chloro-5-(2,2-dichloro-3-(3,5-dichlorophenyl)cyclopropane-1-carboxamido)-N-(2-isopropylphenyl)benzamide] | 0 to 80 | 50 to 100 | 50 to 100 | A (80-100) |  |  |  |  |
| CN(C(=O)c1cc(NC(=O)[C@H]2[C@H](c3ccc(F)c(Cl)c3)C2(Cl)Cl)ccc1Cl)c1ccc(F)cc1 (relative stereo) [PF5, trans-2-Chloro-5-(2,2-dichloro-3-(3-chloro-4-fluorophenyl)cyclopropane-1-carboxamido)-N-(4-fluorophenyl)-N-methylbenzamide] |  |  |  |  | 80 to 100 | 50 to 100 | 50 to 100 | A (80-100) |
| O=C(Nc1ccc(F)cc1F)c1cc(NC(=O)[C@H]2[C@H](c3cc(Cl)cc(Cl)c3)C2(Cl)Cl)ccc1Cl (relative stereo) [F18, trans-2-Chloro-5-(2,2-dichloro-3-(3,5-dichlorophenyl)cyclopropane-1-carboxamido)-N-(2,4-difluorophenyl)benzamide] | 80 to 100 | 50 to 100 | 50 to 100 | A (80-100) |  |  |  |  |
| O=C(Nc1ccc(F)cn1)c1cc(NC(=O)[C@H]2[C@H](c3cc(Cl)cc(Cl)c3)C2(Cl)Cl)ccc1Cl (relative stereo) [F76, trans-2-Chloro-5-(2,2-dichloro-3-(3,5-dichlorophenyl)cyclopropane-1-carboxamido)-N-(5-fluoropyridin-2-yl)benzamide] | 80 to 100 | 50 to 100 | 50 to 100 | B (More than 0-Less than 80) |  |  |  |  |
| O=C(Nc1ccc[n+]([O-])c1)c1cc(NC(=O)[C@H]2[C@H](c3cc(Cl)cc(Cl)c3)C2(Cl)Cl)ccc1Cl (relative stereo) [F139, trans-3-(2-chloro-5-(2,2-dichloro-3-(3,5-dichlorophenyl)cyclopropane-1-carboxamido)benzamido)pyridine 1-oxide] | 0 to 80 | 50 to 100 | 50 to 100 | A (80-100) |  |  |  |  |
| O=C(Nc1ccc(F)cc1)c1cc(NC(=O)[C@H]2[C@H](c3ccc(F)c(Cl)c3)C2(Cl)Cl)ccc1Cl (relative stereo) [PF4, trans-2-Chloro-5-(2,2-dichloro-3-(3-chloro-4-fluorophenyl)cyclopropane-1-carboxamido)-N-(4-fluorophenyl)benzamide] |  |  |  |  | 80 to 100 | 50 to 100 | 50 to 100 | B (More than 0-Less than 80) |
| Cc1cc(C#N)ccc1NC(=O)c1cc(NC(=O)[C@H]2[C@H](c3ccc(Cl)c(Cl)c3)C2(Cl)Cl)ccc1Cl (relative stereo) [F55, trans-2-Chloro-N-(4-cyano-2-methylphenyl)-5-(2,2-dichloro-3-(3,4-dichlorophenyl)cyclopropane-1-carboxamido)benzamide] | 80 to 100 | 50 to 100 | 50 to 100 | A (80-100) |  |  |  |  |
| CN(C(=O)c1cccc(NC(=O)[C@H]2[C@H](c3cc(Cl)cc(Cl)c3)C2(Cl)Cl)c1F)c1ccc(F)cc1 (relative stereo) [F47, trans-3-(2,2-Dichloro-3-(3,5-dichlorophenyl)cyclopropane-1-carboxamido)-2-fluoro-N-(4-fluorophenyl)-N-methylbenzamide] | 0 to 80 | 50 to 100 | 50 to 100 | B (More than 0-Less than 80) |  |  |  |  |
